Marks after values point to notes of the source that are not given here.
Experiments:
[1] = tested on: antibody responses to chicken egg ovalbumin (OVA); assay: Serum IgG, IgG1 and IgG2a anti-OVA response (ELISA) in mice immunized s.c. with OVA plus adjuvant; type: in vivo, BALB/c mice; parameters: IgG2a, serum IgG subclass anti-OVA activity at week 6: unit not given here; details: for IgG1, serum IgG subclass anti-OVA activity at week 6 / IgG2a, serum IgG subclass anti-OVA activity at week 6: OVA 20 μg + adjuvant 100 μg s.c. days 0, 14, 28; for IgG1, serum IgG subclass anti-OVA activity at week 6 / IgG2a, serum IgG subclass anti-OVA activity at week 6 / IgG2a/IgG1, anti-OVA at week 6: mean ± SEM; for IgG2a/IgG1, anti-OVA at week 6: OVA 20 μg + adjuvant 100 μg s.c.; for IgG2a anti-OVA response in words / serum IgG anti-OVA response compared with OVA alone: study of saponins 3-6; for serum IgG anti-OVA response compared with OVA alone: weeks 2, 4, 6
Experimental: With pure natural saponins 3 and 4, and their derivatives 5 and 6 (FIG. 7) available, their ability to potentiate antibody responses to chicken egg ovalbumin (OVA) was evaluated. The known saponin adjuvant GPI-0100 was used as a positive control. Thus, groups of female BALB/c mice (8-10 weeks of age, six per group) were immunized by the subcutaneous route (s.c.) with OVA (20 μg) alone or with GPI-0100, saponins 3-6 at 100 μg dose on days 0, 14 and 28. Mice were weighed and serum samples were collected prior to each immunization and at 6 weeks after the initial immunization. The levels of serum IgG antibody activity to OVA were determined by enzyme-linked immunosorbent assay (ELISA), as shown in FIGS. 6A-6C, 9A-9C, and Table 1.
Their ability to potentiate antibody responses to chicken egg ovalbumin (OVA) was then evaluated. The known saponin adjuvant GPI-0100 was one of the positive controls. Also used was the recently reported MS derivative VSA-1 (4a) as the other positive control. Its high IgG1/IgG2a production and low toxicity are similar to that of GPI-0100. Thus, groups of female BALB/c mice (8-10 weeks of age, six per group) were immunized by the subcutaneous route (s.c.) with OVA (20 μg) alone or with GPI-0100, or a MS saponin derivative at 100 μg dose on days 0, 14 and 28. Mice were weighed and serum samples were collected prior to each immunization and at 2 weeks following the last immunization. The levels of serum antibody activity to OVA were determined by enzyme-linked immunosorbent assay (ELISA).
BALB/c mice used in this study were from Frederick Cancer Research (Fredrick, MD). To assess the adjuvant activity of the MS saponin-based immune adjuvants, groups of female mice (8-10 weeks of age; 6 mice per group) were immunized by the subcutaneous (s.c.) route with OVA (20 μg) or rHagB (35 μg) alone, or with antigen plus proper adjuvant such as GPI-0100 (100 μg) or a MS adjuvant (100 μg) on days 0, 14 and 28. Prior to each immunization and at two weeks post last immunization, mice were weighed and blood samples were collected from the lateral tail vein by using heparinized capillary pipettes. The serum was obtained after centrifugation and stored at −20° C. until assayed.
The levels of specific serum IgG and IgG subclasses against OVA or rHagB in each group were determined by an enzyme-linked immunosorbent assay (ELISA). Maxisorpmicrotiter plates (NUNC International, Roskilde, DK) were coated with rHagB (1 μg/ml), OVA (0.1 μg/ml), or with optimal amounts of goat anti-mouse IgG, IgG1 or IgG2a in borate buffer saline (BBS; 100 mM NaCl, 50 mM boric acid, 1.2 mM Na2B4O7, pH 8.2) at 4° C. overnight. Plates were blocked with 1% bovine serum albumin (BSA) and 0.02% sodium azide in BBS for 2 h at room temperature. Serial two-fold dilutions of serum samples were added in duplicate to the plates. To generate standard curves, serial dilutions of a mouse immunoglobulin reference serum (MP Biomedicals, Solon, OH) were added to two rows of wells in each plate that had been coated with the appropriate anti-mouse IgG or IgG subclass reagent. After incubation (overnight at 4° C.) and washing of the plates, horseradish peroxidase-conjugated goat anti-mouse IgG or IgG subclass antibody was added to appropriate wells. After 4 h of incubation at room temperature, plates were washed and developed by o-phenylenediamine substrate with hydrogen peroxide. Color development was recorded at 490 nm. The concentrations of antibodies were determined by interpolation on standard curves generated by using the mouse immunoglobulin reference serum and constructed by a computer program based on four-parameter logistic algorithms (Softmax/Molecular Devices Corp., Menlo Park, CA).
Statistical significance in antibody responses was evaluated by t tests (with unpaired, nonparametric and Mann-Whiteny test) using GraphPad Prism 8. Differences were considered significant at a P value<0.05.

serum Ab titers = details: in vivo; cited from earlier work

Momordica saponins II [compound 4]
IgG1, serum IgG subclass anti-OVA activity at week 6 [1]: 262 ± 37 µg/mL | IgG2a, serum IgG subclass anti-OVA activity at week 6 [1]: 0.1 | IgG2a/IgG1, anti-OVA at week 6 [1]: <0.001** | IgG2a anti-OVA response in words [1]: negligible IgG2a responses | serum IgG anti-OVA response compared with OVA alone [1]: significant difference in IgG responses from the OVA group at weeks 2 (P<0.01) and 4 (P<0.001) but not at week 6

monophosphoryl lipid A [MPL]
boost of serum Ab titers compared to vaccine alone (serum Ab titers): 10-20 fold

CC1OC(OC2C(O)C(C(=O)O)OC(OC3CCC4(C)C(CCC5(C)C4CC=C4C6CC(C)(C)CCC6(C(=O)OC6OC(C)C(O)C(O)C6OC6OC(C)C(OC7OCC(O)C(O)C7O)C(OC7OC(CO)C(O)C(OC8OCC(O)C(O)C8O)C7O)C6O)CCC45C)C3(C)C=O)C2OC2OC(CO)C(O)C(O)C2O)C(O)C(O)C1O (centres unmarked) [compound 3, Momordica saponin I]
IgG1, serum IgG subclass anti-OVA activity at week 6 [1]: 233 ± 74 µg/mL | IgG2a, serum IgG subclass anti-OVA activity at week 6 [1]: 0.2 | IgG2a/IgG1, anti-OVA at week 6 [1]: <0.001** | IgG2a anti-OVA response in words [1]: negligible IgG2a responses | serum IgG anti-OVA response compared with OVA alone [1]: did not show significant difference in IgG responses from the OVA group
